Data from publication PMC8237609 (Molecular Metabolism, 2021).

Target: human recombinant LANCL1 (hLANCL1) (Homo sapiens, UniProt O43813)
Assay: [3H]ABA equilibrium saturation binding, nitrocellulose filtration

human recombinant LANCL1 (hLANCL1), sequence (O43813 whole entry): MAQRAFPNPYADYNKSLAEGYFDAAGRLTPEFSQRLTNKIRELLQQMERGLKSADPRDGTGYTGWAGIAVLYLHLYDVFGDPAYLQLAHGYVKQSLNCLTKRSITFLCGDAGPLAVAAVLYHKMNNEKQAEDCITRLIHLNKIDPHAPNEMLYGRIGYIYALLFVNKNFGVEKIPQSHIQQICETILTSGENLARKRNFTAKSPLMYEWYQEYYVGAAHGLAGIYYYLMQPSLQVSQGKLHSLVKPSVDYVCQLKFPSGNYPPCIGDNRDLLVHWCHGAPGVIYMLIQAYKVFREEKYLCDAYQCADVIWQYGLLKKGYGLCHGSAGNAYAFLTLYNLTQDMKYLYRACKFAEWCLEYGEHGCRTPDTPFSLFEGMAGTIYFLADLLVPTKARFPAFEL

Kd: 1000 ± 400 nM
Compound: CC1=CC(=O)CC(C)(C)C1(O)/C=C/C(C)=C\C(=O)O (racemic) [ABA, (±)-ABA]
